Measured values: patent US20230303510A1, “CYCLIZED ACETAMIDO DERIVATIVES AS DNA POLYMERASE THETA INHIBITORS” (Ideaya Biosciences, Inc., priority 2020, published 2023)

Assays:
[1] = target: T1, Pol theta (residues 1819-2590) (Homo sapiens, UniProt O75417); test: PPi assay (inhibition of polymerase activity of Pol theta, PPiLite luminescence); format: biochemical; details: Pol theta 2.8 nM; luminescence kinetic mode 90 min
T1 construct: Pol theta polymerase domain (residues 1819-2590) at a final concentration of 4 nM
T1 sequence (O75417 1819-2590): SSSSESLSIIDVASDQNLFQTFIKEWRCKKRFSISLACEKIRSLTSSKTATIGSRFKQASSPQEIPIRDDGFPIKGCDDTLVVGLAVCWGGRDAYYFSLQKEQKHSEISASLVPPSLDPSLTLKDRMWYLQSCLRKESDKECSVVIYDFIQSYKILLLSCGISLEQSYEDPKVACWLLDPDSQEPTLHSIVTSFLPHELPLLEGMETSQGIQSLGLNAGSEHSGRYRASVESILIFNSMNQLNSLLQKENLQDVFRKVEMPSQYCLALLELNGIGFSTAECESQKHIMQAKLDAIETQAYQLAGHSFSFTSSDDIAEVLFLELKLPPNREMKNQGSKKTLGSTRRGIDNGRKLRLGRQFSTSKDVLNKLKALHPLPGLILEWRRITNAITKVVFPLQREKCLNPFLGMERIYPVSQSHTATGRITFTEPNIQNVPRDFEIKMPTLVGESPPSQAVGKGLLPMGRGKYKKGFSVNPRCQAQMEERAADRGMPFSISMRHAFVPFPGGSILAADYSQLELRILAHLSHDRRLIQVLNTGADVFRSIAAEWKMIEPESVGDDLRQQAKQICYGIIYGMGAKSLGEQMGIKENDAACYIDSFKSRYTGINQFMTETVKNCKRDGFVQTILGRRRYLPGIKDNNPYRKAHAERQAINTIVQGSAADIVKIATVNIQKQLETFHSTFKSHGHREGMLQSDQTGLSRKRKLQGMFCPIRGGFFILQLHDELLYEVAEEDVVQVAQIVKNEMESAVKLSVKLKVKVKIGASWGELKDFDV
Description: The ability of the compounds of Formula (I) or Formula (II) to inhibit polymerase activity of Pol theta was determined using the PPi assay as set forth below.
A mixture of template DNA strand (SEQ ID NO:4: 5′ ATTACTGACCTCATACTTCTGCCCTTCCATGTTCTGTGCCCTCCTTCC 3′) and primer DNA strand (SEQ ID NO:5: 5′ GGA AGG AGG GCA CAG AAC 3′) was annealed in 10 mM Tris-HCl pH 8.0, […] buffer to form the primed DNA substrate. A 10-point dilution series of compounds were used in a 384 well format for the inhibition assay. Pol theta (residues 1819-2590) (2.8 nM) in assay buffer (20 mM Tris-HCl pH 7.8, 50 mM KCl, 10 mM MgCl2, 1 mM DTT, 0.01% BSA, 0.01% Tween-20) was transferred to the test wells (10 uL), except for the low control wells. The plate was then incubated at room temperature for 15 mins. An equal volume (10 μL) of dNTP substrate (40 μM) and primed DNA substrate (800 nM) in assay buffer was added to all the test wells. 20 μL of PPi detection reagent (PPiLite inorganic pyrophosphate assay, Lonzo) was then added to all test wells. The plate was then centrifuged at 1000 rpm for 1 min. The reaction was monitored in a Tecan M1000 Pro plate reader in luminescence kinetic mode for 90 min. The high control (DMSO with enzyme) with high luminescence represents no inhibition of the polymerase reaction while the low control (DMSO with buffer) with low luminescence represents full inhibition of the polymerase activity. Slope of the reaction progress curves were used to calculate the rate of polymerization. The rates were used to determine the percent inhibition using a four-parameter inhibition model to generate IC50, Hill slope, maximum inhibition, and minimum inhibition.

[2] = target: T2, Pol theta polymerase domain (residues 1819-2590) (Homo sapiens, UniProt O75417); test: Primer extension assay (inhibition of polymerase activity of Pol theta, molecular beacon fluorescence); format: biochemical; details: Pol theta polymerase domain 4 nM; fluorescence change over 30 min
T2 construct: Pol theta polymerase domain (residues 1819-2590) at a final concentration of 4 nM
T2 sequence (O75417 1819-2590): T1 sequence (O75417 1819-2590)
Description: The ability of the compounds of Formula (I) or Formula (II) to inhibit polymerase activity of Pol theta was determined using the primer extension assay as set forth below.
A mixture of 20 uL of Pol theta polymerase domain (residues 1819-2590) at a final concentration of 4 nM in assay buffer (20 m M TRIS, pH 7.80, 50 mM KCl, 10 mM MgCl2, 1 mM DTT, 0.01% BSA, 0.01% Tween20) was added to test compounds (11-point dilution series of test compounds) except the low control wells without test compounds. The above enzyme and test compound inhibitor mixture was then incubated at room temperature for 15 min. An equal volume (20 μl) of dNTP substrate mixture (48 μM) and primed molecular beacon DNA (obtained by annealing template SEQ ID NO:2: (5′-CCTTCCTCCCGTGTCTTG-TACCTTCCCGTCA-GGAGGAAGG-3′) with 5′-TAMRA and 3′-BHQ and primer DNA (SEQ ID NO:3; 5′-GACGGGAAGG-3′) in 10 mM Tris-HCl pH 8.0, 100 mM NaCl buffer) (96 nM) in assay buffer was added to all the test wells. The inhibition activity was measured by monitoring the fluorescence change over 30 min at 535 nm upon excitation at 485 nm. The high control (DMSO with enzyme) with high fluorescence intensity represents no inhibition of polymerase reaction while the low control (DMSO with buffer) with low fluorescence intensity represents full inhibition of polymerase activity. Slope of the reaction progress curves were used to calculate the rate of polymerization. The rates were used to determine the percent inhibition using a four-parameter inhibition model to generate IC50, Hill slope and max inhibition.

SMILES | IC50 [1] | IC50 [2]
CN(C(=O)[C@H]1CCCN1c1cc(C(F)(F)F)cc(C(F)(F)F)n1)c1ccc(F)cc1 [1.002, (R)-1-(4,6-bis(trifluoromethyl)pyridin-2-yl)-N-(4-fluorophenyl)-N-methylpyrrolidine-2-carboxamide] | 1 to 10 µM | 1 to 10 µM
CN(C(=O)[C@@H]1CCCN1c1cc(C(F)(F)F)cc(C(F)(F)F)n1)c1ccc(F)cc1 [1.003, (S)-1-(4,6-bis(trifluoromethyl)pyridin-2-yl)-N-(4-fluorophenyl)-N-methylpyrrolidine-2-carboxamide] | ≤ 0.2 µM | ≤ 0.2 µM
CN(C(=O)C1COCCN1c1cc(C(F)(F)F)cc(C(F)(F)F)n1)c1ccc(F)cc1 (centres unmarked) [1.006, 4-(4,6-bis(trifluoromethyl)pyridin-2-yl)-N-(4-fluorophenyl)-N-methylmorpholine-3-carboxamide] | 1 to 10 µM | ≤ 0.2 µM
CN(C(=O)[C@@H]1[C@@H](O)CCN1c1cc(C(F)(F)F)cc(C(F)(F)F)n1)c1ccc(F)cc1 [1.019, (2S,3S)-1-(4,6-bis(trifluoromethyl)pyridin-2-yl)-N-(4-fluorophenyl)-3-hydroxy-N-methylpyrrolidine-2-carboxamide] | ≤ 0.2 µM | ≤ 0.2 µM
CC(=O)N[C@H]1C[C@@H](C(=O)N(C)c2ccc(F)cc2)N(c2cc(C(F)(F)F)cc(C(F)(F)F)n2)C1 [1.020, (2S,4S)-4-acetamido-1-(4,6-bis(trifluoromethyl)pyridin-2-yl)-N-(4-fluorophenyl)-N-methylpyrrolidine-2-carboxamide] | ≤ 0.2 µM | ≤ 0.2 µM
CC(=O)N[C@@H]1C[C@@H](C(=O)N(C)c2ccc(F)cc2)N(c2cc(C(F)(F)F)cc(C(F)(F)F)n2)C1 [1.022, (2S,4R)-4-acetamido-1-(4,6-bis(trifluoromethyl)pyridin-2-yl)-N-(4-fluorophenyl)-N-methylpyrrolidine-2-carboxamide] | ≤ 0.2 µM | ≤ 0.2 µM
CN(C(=O)C1CCCN1c1nc(C(F)(F)F)cc(C(F)(F)F)c1C#N)c1ccc(F)cc1 (centres unmarked) [1.024, 1-(3-cyano-4,6-bis(trifluoromethyl)pyridin-2-yl)-N-(4-fluorophenyl)-N-methylpyrrolidine-2-carboxamide] | ≤ 0.2 µM | ≤ 0.2 µM
